Assay results as given in ChEMBL document CHEMBL1159368, “Phenolic compounds from Nymphaea odorata” (J Nat Prod, 2003).
≈ marks a conversion by molar mass, not a printed value.

Assay: Inhibition of Saccharomyces cerevisiae FAS

Row | SMILES | IC50
1 | O=c1c(O[C@@H]2O[C@H](CO)[C@H](O)[C@H](O)[C@H]2O)c(-c2cc(O)c(O)c(O)c2)oc2cc(O)cc(O)c12 | 25 µg/mL (≈ 52 µM)
2 | C[C@@H]1O[C@@H](Oc2c(-c3ccc(O)cc3)oc3cc(O)cc(O)c3c2=O)[C@H](O)[C@H](O)[C@H]1O [AFZELIN] | 45 µg/mL (≈ 104 µM)
3 | C/C=C/C/C=C/CCC(=O)[C@H]1O[C@H]1C(N)=O [CERULENIN] | 0.19 µg/mL (≈ 0.851 µM)
4 | C[C@@H]1O[C@@H](Oc2c(-c3ccc(O)c(O)c3)oc3cc(O)cc(O)c3c2=O)[C@H](O)[C@H](O)[C@H]1O [QUERCITRIN] | 50 µg/mL (≈ 112 µM)
